Experimental data published in publication PMC6769917, “Glycan Binding Profiling of Jacalin-Related Lectins from the Pteria Penguin Pearl Shell” (International Journal of Molecular Sciences, 2019).

Molecular target: T1, PPL4 (Pteria penguin, UniProt B6F0T8+B6F0T9)
T1 construct: gene PPL4-a; native, purified from mantle secretory fluid; mature 148 residues per subunit, 16 kDa; disulfide-linked heterodimer 32 kDa (head-to-head, N-terminal bond); N-termini […]; (alpha), […]; (beta)
Test: hemagglutination inhibition, rabbit erythrocytes, purified lectin
Type: cell-based
Details: 0.15 M NaCl; hemagglutination titer 2^−3; 2% rabbit erythrocytes
Text: hemagglutination inhibition, rabbit erythrocytes, purified lectin on PPL4

T1 sequence (B6F0T8 entry or part of it): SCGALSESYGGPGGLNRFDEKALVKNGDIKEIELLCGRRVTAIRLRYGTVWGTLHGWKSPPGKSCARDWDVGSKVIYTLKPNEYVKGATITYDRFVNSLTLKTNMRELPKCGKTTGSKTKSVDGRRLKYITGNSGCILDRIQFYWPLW
T1 sequence (B6F0T9 entry or part of it): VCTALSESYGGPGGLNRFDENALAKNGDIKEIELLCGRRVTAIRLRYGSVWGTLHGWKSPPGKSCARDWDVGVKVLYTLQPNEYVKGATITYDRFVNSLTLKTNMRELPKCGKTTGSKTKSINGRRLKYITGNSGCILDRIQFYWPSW

PPL3	PPL4	SMILES
50 mM	–	OCC1(O)OC[C@@H](O)[C@@H](O)[C@@H]1O (stereo partly drawn) [D-Fructose]
–	> 200 mM	OC[C@H]1O[C@H](OC[C@H]2OC(O)[C@H](O)[C@@H](O)[C@@H]2O)[C@H](O)[C@@H](O)[C@@H]1O (some centres unmarked) [Isomaltose]
–	100 mM	OC[C@H]1O[C@H](O[C@H]2C(O)O[C@H](CO)[C@@H](O)[C@@H]2O)[C@H](O)[C@@H](O)[C@@H]1O (some centres unmarked) [Kojibiose]
–	6.25 mM	CC(=O)N[C@H]1C(O)O[C@H](CO)[C@@H](O)[C@@H]1O (stereo partly drawn) [N-Acetyl-D-glucosamine]
–	100 mM	OC[C@H]1O[C@H](O[C@H]2O[C@H](CO)[C@@H](O)[C@H](O)[C@H]2O)[C@H](O)[C@@H](O)[C@@H]1O [Trehalose]
